Data as given in patent US20250230193A1, “CYCLIC COMPOUND HAVING SELECTIVE KRAS INHIBITORY EFFECT ON HRAS AND NRAS” (CHUGAI SEIYAKU KABUSHIKI KAISHA, priority 2022, published 2025).
*1 amine or outer side, *2 acyl side, *3 side chain or, on linkers, in order; H or OH if unused. Where a SMILES comes first, the peptide text is derived from it. Bridges are numbered along the chain shown (N, C = ends). [ ]: non-standard residue; d: D form. The star is where a group is joined. hPhe(3,5-F2-4-CF3) = N[C@@H](CCc1cc(F)c(C(F)(F)F)c(F)c1)C(=O)O; hPhe(3-Cl-4-CF3) = N[C@@H](CCc1ccc(C(F)(F)F)c(Cl)c1)C(=O)O; NPrPhe(4-CF3) = CCCN[C@@H](Cc1ccc(C(F)(F)F)cc1)C(=O)O; NMeGly(cPent) = CN[C@H](C(=O)O)C1CCCC1; X13 = CCC[C@](C)(N[*:1])C(=O)[*:2]; NMeD = CN[C@@H](CC(=O)O)C(=O)O; NMeL = CN[C@@H](CC(C)C)C(=O)O; Morpholide = C1CN(*)CCO1; Ac5c = NC1(C(=O)O)CCCC1; X25 = CC1(C)CCN(*)C1; Sar = CNCC(=O)O

Legend:
[1] = molecular target: GDP-bound HRAS wild-type protein (Homo sapiens, UniProt P01112); assay: Binding to HRAS by surface plasmon resonance (SPR), Single Cycle Kinetics
[2] = molecular target: GDP-bound NRAS wild-type protein (Homo sapiens, UniProt P01111); assay: Binding to NRAS by surface plasmon resonance (SPR), Single Cycle Kinetics
[3] = KD ratio HRAS/KRAS, class symbols
[4] = KD ratio NRAS/KRAS, class symbols
[5] = KD ratio, GDP-bound HRAS wild-type vs GDP-bound KRAS wild-type, SPR
[6] = KD ratio, GDP-bound NRAS wild-type vs GDP-bound KRAS wild-type, SPR

GDP-bound HRAS wild-type protein, sequence (P01112 whole entry): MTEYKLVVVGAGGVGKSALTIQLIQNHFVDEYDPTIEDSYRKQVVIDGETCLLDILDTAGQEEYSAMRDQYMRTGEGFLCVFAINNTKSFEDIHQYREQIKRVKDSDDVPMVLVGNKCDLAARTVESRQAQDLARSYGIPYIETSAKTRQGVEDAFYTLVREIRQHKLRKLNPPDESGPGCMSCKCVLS
GDP-bound NRAS wild-type protein, sequence (P01111 whole entry): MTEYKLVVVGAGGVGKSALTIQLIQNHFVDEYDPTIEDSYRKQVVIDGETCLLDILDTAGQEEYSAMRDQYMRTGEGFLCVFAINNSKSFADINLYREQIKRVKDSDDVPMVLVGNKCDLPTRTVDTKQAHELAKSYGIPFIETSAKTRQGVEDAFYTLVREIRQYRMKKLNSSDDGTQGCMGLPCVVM

## CCCN1C(=O)CN(C)C(=O)CN(C)C(=O)[C@H]([C@@H](C)CC)NC(=O)[C@H](CC(C)C)N(C)C(=O)C[C@@H](C(=O)N2CCOCC2)N(C)C(=O)[C@H](C2CCCC2)N(C)C(=O)[C@](C)(CCC)NC(=O)[C@@H]2CCCN2C(=O)[C@H](CCc2cc(F)c(C(F)(F)F)c(F)c2)NC(=O)CN(C)C(=O)[C@@H]1Cc1ccc(C(F)(F)F)cc1 [PP0758] ([NMeL]I[Sar][Sar][NPrPhe(4-CF3)][Sar][hPhe(3,5-F2-4-CF3)]P[X13][NMeGly(cPent)][NMeD]-Morpholide; lactam N-11)
[1]; KD ratio HRAS/KRAS, SPR
  HRAS/KRAS (ratio of KD value with respect to GDP-bound HRAS wild-type protein to KD value with respect to KRAS): C (A compound having a KD ratio of 0.1 or more and less than 3 is denoted as C)
[2]; KD ratio NRAS/KRAS, SPR
  NRAS/KRAS (ratio of KD value with respect to GDP-bound NRAS wild-type protein to KD value with respect to KRAS): B (a compound having 3 or more and less than 10 is denoted as B)

## CCC(CC)[C@H]1C(=O)N(C)[C@H](C(=O)N(C)C)CC(=O)N(C)[C@@H](COC)C(=O)N[C@@H]([C@@H](C)CC)C(=O)N(C)CC(=O)N(C)[C@H]2C/C=C\CCN(C2=O)[C@@H](Cc2ccc(C)cc2)C(=O)N(C)CC(=O)N[C@@H](CCc2ccc(C(F)(F)F)c(OC)c2)C(=O)N2CCCC[C@H]2C(=O)NC2(CC(C)(C)C2)C(=O)N1C [PP2937]
[1]; [3]
  HRAS/KRAS (ratio of KD value with respect to GDP-bound HRAS wild-type protein to KD value with respect to KRAS): A (a compound having 10 or more and less than 20 is denoted as A)
[2]; [4]
  NRAS/KRAS (ratio of KD value with respect to GDP-bound NRAS wild-type protein to KD value with respect to KRAS): A (a compound having 10 or more and less than 20 is denoted as A)

## CCCOC[C@H]1C(=O)N[C@@H]([C@@H](C)CC)C(=O)N(C)CC(=O)N(C)[C@H]2C/C=C\CCN(C2=O)[C@@H](Cc2ccc(C(F)(F)F)cc2)C(=O)N(C)CC(=O)N[C@@H](CCc2cc(F)c(C(F)(F)F)c(F)c2)C(=O)N2C[C@H](F)C[C@H]2C(=O)NC2(CC(C)(C)C2)C(=O)N(C)[C@@H](C2CCCC2)C(=O)N(C)[C@H](C(=O)N(C)CCC)CC(=O)N1C [PP1698]
[1]; [5]
  HRAS/KRAS (ratio of KD value for HRAS to KD value for KRAS): A (a compound having 10 or more and less than 20 is denoted as A)
[2]; [6]
  NRAS/KRAS (ratio of KD value for NRAS to KD value for KRAS): A (a compound having 10 or more and less than 20 is denoted as A)

## CCC[C@H]1C(=O)N[C@@H]([C@@H](C)CC)C(=O)N(C)CC(=O)N(C)[C@H]2C/C=C\CCN(C2=O)[C@@H](Cc2ccc(C(F)(F)F)cc2)C(=O)N(C)CC(=O)N[C@@H](CCc2ccc3c(C)c(C)n(C)c3c2)C(=O)N2C[C@H](OCC)C[C@H]2C(=O)NC2(CC(C)(C)C2)C(=O)N(C)[C@@H](C2CCCC2)C(=O)N(C)[C@H](C(=O)N(C)C)CC(=O)N1C [PP2893]
[1]; [3]
  HRAS/KRAS (ratio of KD value with respect to GDP-bound HRAS wild-type protein to KD value with respect to KRAS): A (a compound having 10 or more and less than 20 is denoted as A)
[2]; [4]
  NRAS/KRAS (ratio of KD value with respect to GDP-bound NRAS wild-type protein to KD value with respect to KRAS): A (a compound having 10 or more and less than 20 is denoted as A)

## CCCN1C(=O)CN(C)C(=O)CN(C)C(=O)[C@H]([C@@H](C)CC)NC(=O)[C@H](CC(C)C)N(C)C(=O)C[C@@H](C(=O)N2CCC(C)(C)C2)N(C)C(=O)[C@H](C2CCCC2)N(C)C(=O)C2(CCCC2)NC(=O)[C@@H]2CCCN2C(=O)[C@H](CCc2ccc(C(F)(F)F)c(Cl)c2)NC(=O)CN(C)C(=O)[C@@H]1Cc1ccc(C(F)(F)F)cc1 [PP0177] ([NMeL]I[Sar][Sar][NPrPhe(4-CF3)][Sar][hPhe(3-Cl-4-CF3)]P[Ac5c][NMeGly(cPent)][NMeD]-X25; lactam N-11)
[1]; KD ratio HRAS/KRAS, SPR
  HRAS/KRAS (ratio of KD for GDP-bound HRAS wild-type to KD for KRAS): C (A compound having a KD ratio of 0.1 or more and less than 3 is denoted as C)
[2]; KD ratio NRAS/KRAS, SPR
  NRAS/KRAS (ratio of KD for GDP-bound NRAS wild-type to KD for KRAS): B (a compound having 3 or more and less than 10 is denoted as B)

## CCCC[C@H]1C(=O)NC2(CCC2)C(=O)N(C)[C@@H](C2CCCC2)C(=O)N(C)[C@H](C(=O)N(C)C)CC(=O)N(C)[C@@H](CC)C(=O)N[C@@H]([C@@H](C)CC)C(=O)N(C)CC(=O)N(C)[C@H]2C/C=C\CCN(C2=O)[C@@H](Cc2ccc(C(F)(F)F)cc2)C(=O)N(C)CC(=O)N[C@@H](CCc2cc(F)c(C(F)(F)F)c(F)c2)C(=O)N1C [PP1150]
[1]; [5]
  HRAS/KRAS (ratio of KD value with respect to HRAS to KD value with respect to KRAS): A (a compound having 10 or more and less than 20 is denoted as A)
[2]; [6]
  NRAS/KRAS (ratio of KD value with respect to NRAS to KD value with respect to KRAS): AA (a compound having 20 or more is denoted as AA)

## CCC(CC)[C@H]1C(=O)N(C)[C@H](C(=O)N(C)C)CC(=O)N(C)[C@@H](COC)C(=O)N[C@@H]([C@@H](C)CC)C(=O)N2CCC[C@H]2C(=O)N(C)[C@H]2C/C=C\CCN(C2=O)[C@@H](Cc2ccc(C(F)(F)F)cc2)C(=O)N(C)CC(=O)N[C@@H](CCc2ccc(Cl)c(Cl)c2)C(=O)N2C[C@H](OC(C)C)C[C@H]2C(=O)NC2(CC(C)(C)C2)C(=O)N1C [PP2639]
[1]; [3]
  HRAS/KRAS (ratio of KD value with respect to GDP-bound HRAS wild-type protein to KD value with respect to KRAS): A (a compound having 10 or more and less than 20 is denoted as A)
[2]; [4]
  NRAS/KRAS (ratio of KD value with respect to GDP-bound NRAS wild-type protein to KD value with respect to KRAS): AA (a compound having 20 or more is denoted as AA)
